Test results from the RepoRT retention time repository.

Experiment: HILIC, HILICON iHILIC-(P) Classic, HILIC, PEEK, 100 × 2.1 mm, 5 µm, 40 °C, 0.12 mL/min, estimated dead time 1.8 min; A: water + 20 mM ammonium carbonate + 5 µM medronic acid; B: 10% water + 90% acetonitrile + 2 mM ammonium carbonate + 0.5 µM medronic acid; gradient (min/%B) 0/95 18/55 19/20 22/20 22.5/95 24/95 26/95
Settings: stereoisomer not certain

| Structure (SMILES) | LC retention time [min] |
| --- | --- |
| O=C(O)CCC(=O)C(=O)O [2-Oxoglutaric acid] | 12.7 |
| Nc1ncnc2c1ncn2C1OC(COP(=O)(O)OP(=O)(O)O)C(O)C1O (stereo not drawn) [ADP] | 12.2 |
| Nc1ncnc2c1ncn2C1OC(COP(=O)(O)O)C(O)C1O (stereo not drawn) [AMP] | 9.81 |
| Nc1ncnc2c1ncn2C1OC(COP(=O)(O)OP(=O)(O)OP(=O)(O)O)C(O)C1O (stereo not drawn) [ATP] | 13.7 |
| CC(=O)SCCNC(=O)CCNC(=O)C(O)C(C)(C)COP(=O)(O)OP(=O)(O)OCC1OC(n2cnc3c(N)ncnc32)C(O)C1OP(=O)(O)O (stereo not drawn) [Acetyl-CoA] | 10 |
| Nc1ncnc2c1ncn2C1OC(CO)C(O)C1O (stereo not drawn) [Adenosine] | 4.33 |
| NC(N)=NCCCC(N)C(=O)O (stereo not drawn) [Arginine] | 18.9 |
| NC(=O)CC(N)C(=O)O (stereo not drawn) [Asparagine] | 9.93 |
| O=C(O)CC(O)(CC(=O)O)C(=O)O [Citric acid] | 15 |
| CC(C)(COP(=O)(O)OP(=O)(O)OCC1OC(n2cnc3c(N)ncnc32)C(O)C1OP(=O)(O)O)C(O)C(=O)NCCC(=O)NCCS (stereo not drawn) [CoenzymeA] | 11.4 |
| O=C(CO)C(O)C(O)C(O)COP(=O)(O)O (stereo not drawn) [Fructose 6-phosphate] | 12.5 |
| O=P(O)(O)OCC1OC(O)(COP(=O)(O)O)C(O)C1O (stereo not drawn) [Fructose-1,6-bisphosphate] | 15.9 |
| O=C(O)C=CC(=O)O [Fumaric Acid] | 12 |
| NC(CCC(=O)NC(CS)C(=O)NCC(=O)O)C(=O)O (stereo not drawn) [GSH] | 9.93 |
| NC(CCC(=O)NC(CSSCC(NC(=O)CCC(N)C(=O)O)C(=O)NCC(=O)O)C(=O)NCC(=O)O)C(=O)O (stereo not drawn) [GSSG] | 14.8 |
| O=P(O)(O)OC1OC(CO)C(O)C(O)C1O (stereo not drawn) [Glucose-1-phosphate] | 12.5 |
| O=P(O)(O)OCC1OC(O)C(O)C(O)C1O (stereo not drawn) [Glucose-6-phosphate] | 13.5 |

| Structure (SMILES) | LC retention time [min] |
| --- | --- |
| NC(CCC(=O)O)C(=O)O (stereo not drawn) [Glutamic acid] | 9.95 |
| NC(=O)CCC(N)C(=O)O (stereo not drawn) [Glutamine] | 9.95 |
| O=P(O)(O)OCC(O)CO (stereo not drawn) [Glycerol-3-phosphate] | 11 |
| O=C(O)CC(C(=O)O)C(O)C(=O)O (stereo not drawn) [Isocitric acid] | 15.7 |
| CC(O)C(=O)O (stereo not drawn) [Lactic Acid] | 3.31 |
| NCCCCC(N)C(=O)O (stereo not drawn) [Lysine] | 18.5 |
| O=C(O)CC(O)C(=O)O (stereo not drawn) [Malic Acid] | 11.9 |
| NC(=O)C1=CN(C2OC(COP(=O)(O)OP(=O)(O)OCC3OC(n4cnc5c(N)ncnc54)C(O)C3O)C(O)C2O)C=CC1 (stereo not drawn) [NADH] | 9.3 |
| NC(=O)C1=CN(C2OC(COP(=O)(O)OP(=O)(O)OCC3OC(n4cnc5c(N)ncnc54)C(OP(=O)(O)O)C3O)C(O)C2O)C=CC1 (stereo not drawn) [NADPH] | 15.5 |
| NC(=O)c1ccc[n+](C2OC(COP(=O)(O)OP(=O)(O)OCC3OC(n4cnc5c(N)ncnc54)C(OP(=O)(O)O)C3O)C(O)C2O)c1 (stereo not drawn) [NADP] | 14.3 |
| NC(=O)c1ccc[n+](C2OC(COP(=O)(O)OP(=O)(O)OCC3OC(n4cnc5c(N)ncnc54)C(O)C3O)C(O)C2O)c1 (stereo not drawn) [NAD] | 10.4 |
| C=C(OP(=O)(O)O)C(=O)O [PEP] | 14.5 |
| O=P(O)(O)OCC1OC(O)C(O)C1O (stereo not drawn) [Pentose-phosphate] | 11.3 |
| O=C(O)CCC(=O)O [Succinic Acid] | 10.9 |
| O=C(CO)COP(=O)(O)O [Triose phosphate] | 11.3 |
| CC(=O)NC1C(OP(=O)(O)OP(=O)(O)OCC2OC(n3ccc(=O)[nH]c3=O)C(O)C2O)OC(CO)C(O)C1O (stereo not drawn) [UDP-GlcNAc] | 11.7 |
